Tests used:
CFSE-labeled CD4 T-cells = type: cell-based, human; details: NL4-3-infected effector cells
Method: (A) Experimental strategy to assess indirect cell killing in HIV-1-infected human lymphoid cultures. Fresh human tonsil tissue from a single donor is processed into HLAC, and then separated into two fractions. One fraction is challenged with HIV-1 and cultured for 6 days, allowing viral spread. On day 5, the uninfected fraction is treated with AZT (5 μM) and labeled with CFSE (1 μM). On day 6, the infected and CFSE-labeled (i.e., uninfected) cultures are mixed and co-cultured in the presence of AZT. […] After 6 days of co-culturing, the number of viable CFSE-positive cells is determined by flow cytometry. (B) Flow cytometry analysis of the mixed HLACs. Indirect killing is determined by gating on live CFSE-positive cells in the mixed cultures. Effector cells are either infected or uninfected cells. […] CFSE-labeled cells mixed with uninfected or infected cells were cultured in the presence of 5 μM AZT alone or together with 250 nM AMD3100. Data represent live CFSE-positive cells 6 days after co-culture with infected or uninfected effector cells. […] The absolute numbers of viable CFSE-positive CD4 and CD8 T-cells and B cells were determined. Percentages are normalized to the number of viable CFSE-positive cells co-cultured with uninfected cells in the presence of AZT, as depicted by (*). Error bars represent standard deviations of three samples from the same donor. […] See also FIG. 3.
Human tonsil or splenic tissues from routine tonsillectomies were obtained from the National Disease Research Interchange and the Cooperative Human Tissue Network and processed as previously described (Jekle et al., 2003, J Virol 77:5846-5854). In brief, tonsils or spleen were minced, passed through a 40-μm cell strainer, and cultured in 96-well U-bottomed polystyrene plates (2×10^6 cells/well) in medium (200 μl/well) consisting of RPMI 1640 supplemented with 15% heat-inactivated fetal bovine serum, 100 μg/ml gentamicin, 200 μg/ml ampicillin, 1 mM sodium pyruvate, 1% nonessential amino acids (Mediatech), 2 mM L-glutamine, and 1% fungizone (Invitrogen). All HIV-1 infections were carried out with 20-50 ng of HIV-1 p24^gag. Cells were incubated with the virus for 12-16 h, washed extensively, and supplemented with fresh medium. After day 5, infections were monitored by measuring p24gag levels in the culture medium using a FLAQ assay (Hayden et al., 2003, AIDS 17:629-631). Infected and uninfected cultures were manipulated as described for individual experiments. In “indirect killing” assays, unless otherwise stated, drugs were used at the following concentrations: 5 μM AZT; 250 nM AMD3100; 10 μg/ml T20; 100 nM Efavirenz; 1 μM Nevirapine; 30 μM Raltegravir; 60 μM 118-D-24; 5 μM Amprenavir; 5 μM Saquinavir; 5 μM Indinavir. CFSE-labeled cells were activated with PHA (5 μg/ml) and IL-2 (20 ng/ml) 2 days before mixing with effector cells.
Uninfected cells (5×10^6/ml) were labeled with 1 μM CFSE (Molecular Probes C1157), treated with 5 μM AZT for 24 h, and co-cultured with effector cells. CFSE readily diffuses into cells, where intracellular esterases cleave the acetate groups, converting it to a fluorescent, membrane-impermeable dye.

SupT1 cells = assay: Virion-based fusion assay (BlaM-Vpr); type: cell-based; details: virions produced in the presence of amprenavir
Method: The virion-based fusion assay is performed in three successive steps: (1) incubation of target cells with virions, (2) loading of target cells with the CCF2/AM dye, and (3) development and detection of the BlaM reaction. SupT1 cells (5×10^5) were incubated with BlaM-Vpr containing virions (400 ng of p24^gag at 37° C. for 2 hours, washed in CO2-independent medium (GibCo BRL), and loaded with CCF2/AM dye as described by the manufacturer (Invitrogen). Briefly, 2 μl of CCF2/AM (1 mM) was mixed with 8 μl of 0.1% acetic acid containing 100 mg/ml Pluronic-F127R and 1 ml of DEEM to constitute the loading solution. Cells were incubated in 100 μl of loading solution for 1 hour at room temperature. After two washes with DEEM, the BlaM reaction was executed for 16 hours at room temperature in 200 μl of DMEM supplemented with 10% FBS and 2.5 mM probenecid, a nonspecific inhibitor of anion transport (Sigma Pharmaceuticals). Finally, the cells were washed once in DMEM and fixed in a 2% solution of paraformaldehyde. The change in emission fluorescence of CCF2 after cleavage by the BlaM-Vpr chimera was monitored by flow cytometry with LSR2 (Becton Dickinson, San Jose, Calif.). Data were collected with DiVa software and analyzed with FlowJo software (Treestar, San Carlos, Calif.).

[1] = system: SupT1 CD4 T leukemic cells; assay: Syncytia formation in NL4-3-infected SupT1 cells; type: cell-based; details: 5 μM protease inhibitor, 2.5 days
Method: (A) The spinoculation procedure. (B) Flow cytometry of viable CD4 versus CD8-T-cells in HLAC three days after spinoculation in the presence of the indicated drugs. Data represent live-gated cells, based on the forward-scatter versus side-scatter profile of the complete culture. Of note, apoptotic cells were included in the analysis of caspases activity and cytokine expression (FIG. 10E, F). Drugs concentrations: AZT 5 μM; Efavirenz 100 nM; AMD3100 250 nM; T20 10 μg/ml. The data are representative results of six independent experiments with six different donors. […] (C) Highly permissive SupT1 CD4 T leukemic cells were infected with NL4-3 and cultivated for 3 days to allow substantial infection but not syncytia formation. […] After 2.5 days of additional culture, the extent of syncytia formation in each sample was evaluated by light microscopy. […] Results are representative of three independent experiments.

NL4-3 and TR712 virions = assay: Viral maturation, immunoblot of viral lysates produced in 293T-cells; type: cell-based; details: NL4-3 and TR712 virions produced with amprenavir
Method: NL4-3 and TR712 viruses were generated in 293T-cells with or without amprenavir, lysed and subjected to SDS-PAGE immunoblotting analysis for gp120, p55 Gag, p24 CA, Blam-Vpr, and free Blam. […] SupT1 cells were mock infected or infected with mature or immature NL4-3 or TR712 virions containing Blam-Vpr. After loading of cells with CCF2 dye, fusion was analyzed by flow cytometry. Percentages are the fraction of cells displaying increased cleaved CCF2 fluorescence, indicating virion fusion.
The effect of protease inhibitors on viral maturation was assessed first. NL4-3 viruses carrying a β-lactamase-Vpr (BlaM-Vpr) reporter protein were produced in 293T-cells in the presence or absence of the HIV protease inhibitor amprenavir.

HLAC CD4 T-cells = assay: HLAC cells overlaid on virus-producing 293T-cells, CD4 T-cell depletion; type: cell-based, human; details: TR712-transfected 293T-cells in the presence of amprenavir
Method: HLACs were infected with viruses derived from the indicated HIV proviral clones in the presence of the indicated concentrations of AZT or in the absence of drugs. Six days after infection the amount of p24^gag in the medium was determined by FLAQ assay. The amount of p24^gag in the medium after infection wash (day 0) was defined as 0%. […] Viral incorporation of endogenous A3G was measured by immunoblot analysis of purified NL4-3 and Δvif NL4-3 virions harvested from 1 ml of supernatant from infected HLACs. Doses reflect 1:10 dilutions. […] Resting or activated CFSE-labeled cells were co-cultured with cells infected with WT or Δvif NL4-3 in the presence or absence of the following drugs, AZT (5 μM), AMD3100 (250 nM), the NNRTIs Efavirenz (100 nM), and Nevirapine (1 μM), or the integration inhibitors Raltegravir (30 μM) and 118-D-24 (60 μM). Data are representative of four independent experiments performed with cells from four different donors. (E) A method to assess indirect killing in HLAC with non-infectious HIV-1 clones. Fresh human tonsil is processed into HLAC and cells are cultured in suspension. At the same time 293T-cells are transfected with 1 μg HIV-1 DNA in a 24-well plate. After 12 hours, 293T-cells are washed and overlayed with 3×10^6 HLAC cells in RPMI in the presence of the indicated drugs. Virus-producing 293T-cells directly interact with target overlaying HLAC cells. After 24 hours, the HLAC suspensions are collected from wells and analyzed by flow cytometry. […] HLAC were cultured with the indicated drugs 3 hours before co-culture with 293T-cells. Percentages are normalized to the number of viable CD4 T-cells in HLAC overlaying non-transfected 293T-cells in the presence of AZT, as depicted by (*). Error bars represent standard error of the mean of three experiments performed using cells from three different HLAC donors.

CC(C)CN(C[C@@H](O)[C@H](Cc1ccccc1)NC(=O)O[C@H]1CCOC1)S(=O)(=O)c1ccc(N)cc1 [Amprenavir]
indirect killing (loss) of resting CFSE-labeled CD4 T-cells (CFSE-labeled CD4 T-cells): inhibit indirect killing | decline in fusogenic properties of immature NL4-3 viruses (SupT1 cells): 90% | fusion capacity retained by immature TR712 (SupT1 cells): 40% | syncytia formation / cell-cell fusion [1]: do not block syncytia formation | Gag processing in virions (NL4-3 and TR712 virions): an uncleaved form of p55 Gag polypeptide rather than the mature p24 CA protein accumulated | CD4 T-cell killing by TR712 viruses (HLAC CD4 T-cells): prevented CD4 T-cell killing by TR712 viruses
